The values that follow are results of earlier work, collected in patent US20240148758A1, “CONTROLLED RELEASE FORMULATIONS OF HIGHLY LIPOPHILIC PHYSIOLOGICALLY ACTIVE SUBSTANCES” (ADD Advanced Drug Delivery Technologies Ltd., priority 2019, published 2024).

For this series the following is noted: decimal logarithm of the n-octanol/water partition coefficient.

On to `C=C(C)[C@@H]1CCC(C)=C[C@H]1c1c(O)cc(CCCCC)cc1O` [Canapure PH, 2-[1R-3-methyl-6R-(1-methylethenyl)-2-cyclohexen-1-yl]-5-pentyl-1,3-benzenediol], for which the “log P” value is given as “about 6.1”.
